What was measured:
[1] = tested on: HCT-116 RAD21-mAC cells; assay: In situ Hi-C: APA for cohesin-independent links between superenhancers; format: cell-based, human
Text: Applicants first annotated loops in our maps for auxin-treated RAD21-mAC cells using default HiCCUPS parameters for 5, 10, and 25 kb resolutions (Durand et al., 2016b; Rao et al., 2014) with the additional requirement that the peak pixel show […] 4.5-fold enrichment over local expected (in order to remove as many false positives as possible due to rearrangements and assembly issues, see above). Using this procedure, Applicants annotated 81 loops in treated RAD21-mAC cells. […] The false discovery rate for HiCCUPS is much higher in treated cells because the number of true positives is dramatically lower. […] Applicants also noticed that the anchors involved in these 15 loops were often forming long-range loops at distances of tens of megabases and hundreds of megabases. Applicants reasoned that HiCCUPS using default parameters for loop detection was missing many of these extremely long-range loops because of the extra stringency of the HiCCUPS lambda chunking procedure for multiple hypothesis testing for pixels with low counts (i.e. pixels far off the diagonal).
More specifically, Applicants annotated loops by running HiCCUPS at 50 and 100 kb resolutions with the following parameters: p=2,1; w=4,2; fdr=10%, 10%. Applicants additionally filtered loops that were within 5 Mb of the diagonal, had less than a 2-fold observed/expected for any of the local expected, and had fewer than 3 pixels clustered into the peak pixels (see section VI.a.5 of Rao et al., 2014). This annotation yielded 88 loops. […] Combining these 46 loops with the 15 loops annotated with high resolution HiCCUPS, Applicants obtained a final curated list of 61 intrachromosomal cohesin-independent loops.
To annotate these interchromosomal links between pairs of cohesin-independent loop anchors, Applicants used HiCCUPS to calculate local enrichments at 100 kb resolution for all possible interchromosomal pairs of cohesin-independent loop anchors. Applicants then identified enriched focal interchromosomal interactions by filtering for links that were enriched at least 5.5-fold over local background (empirically chosen to ensure a <10% false discovery rate). Using this procedure, Applicants identified 203 interchromosomal cohesin-independent links. This likely underestimates the true number of interchromosomal cohesin-independent links, as evidenced by FIG. SA.
Applicants analyzed the change in strength of cohesin-independent links after auxin treatment by using APA at 100 kb resolution.
Applicants also analyzed induction of cohesin-independent links across an auxin treatment and withdrawal time course. This analysis was performed as above with the cohesin-associated loops and loop domains, but at 100 kb resolution instead of 10 kb resolution and for both our 61 intrachromosomal links and our 203 interchromosomal links. […] Similar results were seen upon performing the time course APA at 100 kb resolution using all intrachromosomal pairs of the 47 superenhancer overlapping anchors in the 88-loop automated list from above (FIG. 11E).

[2] = tested on: RAD21-mAC cells; assay: Gene expression changes between untagged HCT-116 cells and auxin-treated RAD21-mAC cells; format: cell-based; settings: auxin-treated RAD21-mAC cells compared with untagged HCT-116 cells
Text: To our surprise, Applicants only identified 68 cell type specific loops (compared to […] each per pair of cell types in Rao et al 2014). In order to increase statistical power, Applicants identified 518 loops that had been called in one of our cell types in Rao et al 2014 (HMEC, IMR90, K562, HUVEC, HeLa, NHEK) but not in GM12878, or vice versa and had been associated with 10-fold upregulation of a gene whose promoter lay at the loop anchor. Applicants sought to then identify cases where these loop-gene pairs were present in HCT-116 to then examine the results of loop loss. However, only 15 of the 518 loops were conserved in HCT-116. […] Alternatively, it is possible that the tagging of cohesin and resulting potential loss of stability results in preferential loss of cell type specific loops. […] In fact, it may be the case that some other regulatory event catalyzes both loop formation and gene activation, or that gene activation itself enables loop formation.

SMILES: O=C(O)Cc1c[nH]c2ccccc12 [auxin, indole-3-acetic acid]
- strengthening of cohesin-independent links after auxin treatment ([1]; APA at 100 kb resolution, intra and interchromosomal): ~2 fold
- intrachromosomal APA score of cohesin-independent links, treated ([1]; automatedly generated list, untreated 1.69): 2.75
- interchromosomal APA score of cohesin-independent links, treated ([1]; automatedly generated list, untreated 2.29): 3.64
- intrachromosomal APA score of cohesin-independent links, treated ([1]; manually curated list of 61 links, untreated 2.32): 4.02
- interchromosomal APA score of cohesin-independent links, treated ([1]; manually curated list of 203 links, untreated 3.02): 7.02
- genes with a greater than 5-fold change in expression [2]: 3

— patent US20200255828A1, “METHODS AND COMPOSITIONS FOR ALTERING FUNCTION AND STRUCTURE OF CHROMATIN LOOPS AND/OR DOMAINS” (THE BROAD INSTITUTE, INC., priority 2017, published 2020)
